Results published in ChEMBL document CHEMBL1914306, “The design, synthesis and biological evaluation of novel URB602 analogues as potential monoacylglycerol lipase inhibitors” (Bioorg Med Chem Lett, 2011).

Assays:
[1] = molecular target: T1, Monoglyceride lipase (Homo sapiens) (UniProt Q99685); assay: Inhibition of human recombinant MAGL assessed as remaining activity at 1 uM after 10 mins by spectrophotometry relative to control
T1 sequence (whole entry): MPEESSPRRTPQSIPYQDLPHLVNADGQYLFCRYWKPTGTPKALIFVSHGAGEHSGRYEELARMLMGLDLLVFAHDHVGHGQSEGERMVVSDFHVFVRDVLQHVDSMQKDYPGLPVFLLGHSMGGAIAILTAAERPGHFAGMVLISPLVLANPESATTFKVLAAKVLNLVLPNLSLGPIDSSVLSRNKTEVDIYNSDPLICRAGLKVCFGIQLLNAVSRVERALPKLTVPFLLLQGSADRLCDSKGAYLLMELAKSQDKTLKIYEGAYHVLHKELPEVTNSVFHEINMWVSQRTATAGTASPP

[2] = molecular target: T1, Monoglyceride lipase (Homo sapiens); assay: Inhibition of human recombinant MAGL assessed as remaining activity at 10 uM after 10 mins by spectrophotometry relative to control
[3] = molecular target: T1, Monoglyceride lipase (Homo sapiens); assay: Inhibition of human recombinant MAGL assessed as remaining activity at 100 uM after 10 mins by spectrophotometry relative to control
[4] = molecular target: T1, Monoglyceride lipase (Homo sapiens); assay: Inhibition of MAGL assessed as remaining activity using 4-nitrophenylacetate as substrate at 10 uM relative to control

| Compound | Activity [1] [%] | Activity [2] [%] | Activity [3] [%] | Activity [4] [%] |
| --- | --- | --- | --- | --- |
| O=C(Nc1cccc(-c2ccccc2)c1)OC1CCCCCC1 | 94 | 71 | – | – |
| O=C(Nc1cccc(-c2ccccc2)c1)O[C@H]1C[C@H]2CC[C@@H]1C2 | 95 | 79 | – | – |
| O=C(Nc1cccc(-c2ccccc2)c1)OC1CCCCCCC1 | 101 | 92 | – | – |
| S=C(Nc1cccc(-c2ccccc2)c1)OC1CCCCC1 | 73 | 83 | – | – |
| O=C(Nc1cccc(-c2ccc(Cl)cc2)c1)OC1CCCCC1 | 85 | 81 | 81 | – |
| CC(C)[C@@H]1CC[C@@H](C)C[C@H]1OC(=O)Nc1cccc(-c2ccccc2)c1 | 106 | 101 | – | – |
| S=C(Nc1cccc(-c2ccccc2)c1)OC1CCCCCC1 | 79 | 83 | – | – |
| O=C(Nc1cccc(-c2ccccc2)c1)OC1CCC1 | 97 | 86 | 85 | – |
| O=C(Nc1cccc(-c2ccccc2)c1)OC1CCCCC1 | 93 | 71 | 73 | 84 |
| O=C(Nc1cccc(-c2ccc(O)cc2)c1)OC1CCCCC1 | 83 | 46 | 26 | – |

More lines, now with the values ahead:

| Activity [1] [%] | Activity [2] [%] | Activity [3] [%] | Activity [4] [%] | Compound |
| --- | --- | --- | --- | --- |
| 93 | 76 | – | – | S=C(Nc1cccc(-c2ccccc2)c1)NC1CCCCC1 |
| 80 | 73 | – | – | O=C(Nc1cccc(-c2ccccc2)c1)NC1CCCC1 |
| 98 | 79 | 78 | – | O=C(Nc1cccc(-c2ccccc2)c1)NC1CCCCC1 |
| 93 | 71 | – | – | O=C(Nc1cccc(-c2ccccc2)c1)OC1CCCC1 |
| 96 | 80 | 55 | – | O=C(Nc1cccc(-c2ccccc2)c1)NC1CCCCCC1 |
